These are literature values, as cited in patent US20100158905A1, “COMBINATION THERAPY OF ARTHRITIS WITH TRANILAST” (NUON THERAPEUTICS, INC., priority 2008, published 2010).

One series relates to rheumatoid arthritis. Particulars: usual maintenance dose.
Turning to `CC(C)(S)[C@@H](N)C(=O)O` [D-penicillamine], the “Approximate time to benefit” value was 3-6 months. For `CCN(CCO)CCCC(C)Nc1ccnc2cc(Cl)ccc12` (stereo not shown) [Hydroxychloroquine], the “Approximate time to benefit” value is given as 2-6 months.

Regarding `Cc1oncc1C(=O)Nc1ccc(C(F)(F)F)cc1` [Leflunomide], the “Approximate time to benefit” value is 4-12 weeks (skewed earlier). For `O=C(O)c1cc(/N=N/c2ccc(S(=O)(=O)Nc3ccccn3)cc2)ccc1O` [Sulfasalazine], the “Approximate time to benefit” value was 1-3 months. For the compound `CN(Cc1cnc2nc(N)nc(N)c2n1)c1ccc(C(=O)N[C@@H](CCC(=O)O)C(=O)O)cc1` [Methotrexate], the “Approximate time to benefit” value is given as 1-2 months. As for `Cn1cnc([N+](=O)[O-])c1Sc1ncnc2nc[nH]c12` [Azathioprine], the “Approximate time to benefit” value is recorded as 2-3 months. On to Etanercept, for which the “Approximate time to benefit” value is listed as “A few days to 12 weeks”.

A further series relates to RA. Particulars: used in combination with methotrexate.
For Adalimumab, the “improvements in treating RA” value is reported as “marked improvements”. For the compound “infliximab: tumor necrosis factor (TNF) antagonist”, the “improvements in treating RA” value is “marked improvements”.

As to Etanercept, the “improvements in treating RA” value is listed as “marked improvements”.
